Assay results reported in patent US9409907B2, “Inhibitor compounds” (Cancer Research Technology Limited, priority 2012, dated 2016).

Target: full length MPS1 (Homo sapiens (Human), UniProt P33981)
Assay: Measurement of inhibition of MPS1 kinase (Caliper EZ reader mobility-shift enzyme assay)
Type: biochemical
Details: full length MPS1 12.5 nM or 3 nM, H236 peptide 5 μM, ATP 10 μM, 60 min at room temperature
Method: Measurement of Inhibition of MPS1 Kinase
The reaction was carried out for 60 min at room temperature and stopped by the addition of buffer (10 μl) containing 20 mM EDTA, 0.05% (v/v) Brij-35, in 0.1M HEPES-buffered saline (Free acid, Sigma, UK). The plate was read on a Caliper EZ reader II (Caliper Life Sciences).
The % inhibition of the compounds is calculated relative to the means of selected control wells.

Sequence of full length MPS1 (P33981 whole entry): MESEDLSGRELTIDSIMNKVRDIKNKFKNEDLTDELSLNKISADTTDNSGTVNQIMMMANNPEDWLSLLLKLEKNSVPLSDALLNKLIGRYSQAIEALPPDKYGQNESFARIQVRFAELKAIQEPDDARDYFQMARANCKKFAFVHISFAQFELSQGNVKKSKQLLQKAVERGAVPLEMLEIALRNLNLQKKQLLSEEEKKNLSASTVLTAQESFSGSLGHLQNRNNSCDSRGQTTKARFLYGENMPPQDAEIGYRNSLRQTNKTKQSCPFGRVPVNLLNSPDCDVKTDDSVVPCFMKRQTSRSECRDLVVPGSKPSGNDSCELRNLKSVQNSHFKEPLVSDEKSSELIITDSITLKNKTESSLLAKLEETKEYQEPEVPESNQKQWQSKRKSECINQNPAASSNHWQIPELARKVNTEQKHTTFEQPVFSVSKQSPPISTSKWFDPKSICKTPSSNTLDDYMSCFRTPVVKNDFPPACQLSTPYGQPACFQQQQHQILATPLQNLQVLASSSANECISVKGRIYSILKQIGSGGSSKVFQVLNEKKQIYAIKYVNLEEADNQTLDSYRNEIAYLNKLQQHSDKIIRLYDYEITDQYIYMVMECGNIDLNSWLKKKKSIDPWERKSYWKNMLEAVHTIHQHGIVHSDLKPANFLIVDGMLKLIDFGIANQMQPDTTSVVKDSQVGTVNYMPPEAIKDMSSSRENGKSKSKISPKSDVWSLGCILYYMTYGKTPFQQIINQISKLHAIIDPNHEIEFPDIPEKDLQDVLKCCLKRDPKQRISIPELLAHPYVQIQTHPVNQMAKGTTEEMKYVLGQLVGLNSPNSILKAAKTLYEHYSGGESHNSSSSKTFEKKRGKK

IC50	Compound
3 nM	CCOc1cc(-c2nncn2C)ccc1Nc1ncc2cc(C)nc(N3CC4(CCOC4)C3)c2n1 [Example 160, N-(2-ethoxy-4-(4-methyl-4H-1,2,4-triazol-3-yl)phenyl)-6-methyl-8-(6-oxa-2-azaspiro[3.4]octan-2-yl)pyrido[3,4-d]pyrimidin-2-amine]
6 nM	COc1cc(-c2cnn(C)c2)ccc1Nc1ncc2ccnc(NCC(C)(C)O)c2n1 [Example 71, 1-((2-((2-methoxy-4-(1-methyl-1H-pyrazol-4-yl)phenyl)amino)pyrido[3,4-d]pyrimidin-8-yl)amino)-2-methylpropan-2-ol]
4 nM	COCC(CO)Nc1nccc2cnc(Nc3ccc(-c4cnn(C)c4)cc3OC)nc12 (stereo not drawn) [Example 131, 3-Methoxy-2-(2-(2-methoxy-4-(1-methyl-1H-pyrazol-4-yl)phenylamino)pyrido[3,4-d]pyrimidin-8-ylamino)propan-1-ol]
11 nM	COc1cc(C(=O)N2CC(OC)C2)ccc1Nc1cc2c(-c3cnn(C(C)C)c3)cccc2cn1 [Example 7, (4-((5-(1-isopropyl-1H-pyrazol-4-yl)isoquinolin-3-yl)amino)-3-methoxyphenyl)(3-methoxyazetidin-1-yl)methanone]
16 nM	COc1cc(N2CCN(S(C)(=O)=O)CC2)ccc1Nc1ncc2cc(C)nc(NCC(C)(C)C)c2n1 [Example 183]
2 nM	COc1cc(-c2cnn(C)c2C)ccc1Nc1ncc2ccnc(N3CCC4(COC4)C3)c2n1 [Example 145, N-(4-(1,5-dimethyl-1H-pyrazol-4-yl)-2-methoxyphenyl)-8-(2-oxa-6-azaspiro[3.4]octan-6-yl)pyrido[3,4-d]pyrimidin-2-amine]
7 nM	COc1cc(-c2cnc(C)n2C)ccc1Nc1cc2c(-c3cnn(C)c3)nccc2cn1 [Example 104, N-(4-(1,2-dimethyl-1H-imidazol-5-yl)-2-methoxyphenyl)-5-(1-methyl-1H-pyrazol-4-yl)-2,6-naphthyridin-3-amine]
2 nM	COc1cc(-c2cn(C)nc2C)ccc1Nc1ncc2ccnc(NCC3(C)CCOC3)c2n1 (stereo not drawn) [Example 191]
46 nM	COC(C)(C)CNc1nccc2cnc(Nc3ccc(F)cc3OC(F)F)nc12 [Example 203]
261 nM	COc1cc(C(=O)N2CC(OC)C2)ccc1Nc1cc2c(-c3c(C)noc3C)cccc2cn1 [Example 5, (4-((5-(3,5-dimethylisoxazol-4-yl)isoquinolin-3-yl)amino)-3-methoxyphenyl)(3-methoxyazetidin-1-yl)methanone]
82 nM	COc1cc(-c2cnn(C)c2)ccc1Nc1cc2c(NCC3CC3)nccc2cn1 [Example 106, N1-(cyclopropylmethyl)-N7-(2-methoxy-4-(1-methyl-1H-pyrazol-4-yl)phenyl)-2,6-naphthyridine-1,7-diamine]
2 nM	COc1cc(-c2nncn2C)ccc1Nc1ncc2c(C)cnc(NCC(C)(C)C)c2n1 [Example 151, N^2-(2-methoxy-4-(4-methyl-4H-1,2,4-triazol-3-yl)phenyl)-5-methyl-N^8-neopentylpyrido[3,4-d]pyrimidine-2,8-diamine]
8 nM	COc1cc(N2CCOCC2)ccc1Nc1ncc2ccnc(NCC(C)(C)C)c2n1 [Example 52, N2-(2-methoxy-4-morpholinophenyl)-N8-neopentyprido[3,4-d]pyrimidine-2,8-diamine]
4 nM	COc1cc(-c2cnn(C)c2)ccc1Nc1ncc2ccnc(N3CCOC(CO)C3)c2n1 (stereo not drawn) [Example 135, (4-(2-(2-Methoxy-4-(1-methyl-1H-pyrazol-4-yl)phenylamino)pyrido[3,4-d]pyrimidin-8-yl)morpholin-2-yl)methanol]
3 nM	COc1cc(-c2cnn(C)c2)ccc1Nc1ncc2ccnc(N3CCC(CO)C3)c2n1 (stereo not drawn) [Example 133, (1-(2-(2-Methoxy-4-(1-methyl-1H-pyrazol-4-yl)phenylamino)pyrido[3,4-d]pyrimidin-8-yl)pyrrolidin-3-yl)methanol]
3 nM	COc1cc(-c2cnn(C)c2)ccc1Nc1ncc2ccnc(N3CCC4(CCOC4)C3)c2n1 (stereo not drawn) [Example 122, N-(2-methoxy-4-(1-methyl-1H-pyrazol-4-yl)phenyl)-8-(2-oxa-7-azaspiro[4.4]nonan-7-yl)pyrido[3,4-d]pyrimidin-2-amine]

Second part, the compound before the results:

Compound	IC50
COc1cc(-c2cnc(C)n2C)ccc1Nc1cc2c(-c3cnn(C)c3)cccc2cn1 [Example 10, N-(4-(1,2-dimethyl-1H-imidazol-5-yl)-2-methoxyphenyl)-5-(1-methyl-1H-pyrazol-4-yl)isoquinolin-3-amine]	6 nM
CCOc1cc(-c2nncn2C)ccc1Nc1ncc2cc(C)nc(NCC(C)(C)C)c2n1 [Example 182]	3 nM
COc1cc(C(=O)N2CC(OC)C2)ccc1Nc1cc2c(-c3cnn(C4CCN(C)CC4)c3)cccc2cn1 [Example 19, (3-Methoxy-4-((5-(1-(1-methylpiperidin-4-yl)-1H-pyrazol-4-yl)isoquinolin-3-yl)amino)phenyl)(3-methoxyazetidin-1-yl)methanone]	31 nM
COc1cc(-c2cnn(C)c2)ccc1Nc1ncc2ccnc(-c3ccncc3)c2n1 [Example 209, N-(2-Methoxy-4-(1-methyl-1H-pyrazol-4-yl)phenyl)-8-(pyridin-4-yl)pyrido[3,4-d]pyrimidin-2-amine pyridin-4-ylboronate]	7 nM
COc1cc(-c2cnn(C)c2)ccc1Nc1ncc2ccnc(NCC3COC3)c2n1 [Example 72, N2-(2-methoxy-4-(1-methyl-1H-pyrazol-4-yl)phenyl)-N8-(oxetan-3-ylmethyl)pyrido[3,4-d]pyrimidine-2,8-diamine]	5 nM
COc1cc(-c2cnc(C)n2C)ccc1Nc1ncc2ccnc(NCC(C)(C)C)c2n1 [Example 50, N2-(4-(1,2-dimethyl-1H-imidazol-5-yl)-2-methoxyphenyl)-N8-neopentylpyrido[3,4-d]pyrimidine-2,8-diamine]	7 nM
COc1cc(-c2cnc(C)n2C)ccc1Nc1ncc2cc(C)nc(NCC(C)(C)C)c2n1 [Example 177, N2-(4-(1,2-dimethyl-1H-imidazol-5-yl)-2-methoxyphenyl)-6-methyl-N8-neopentylpyrido[3,4-d]pyrimidine-2,8-diamine]	5 nM
CCn1cc(-c2nccc3cnc(Nc4ccc(-c5cnn(C)c5)cc4OC)nc23)cn1 [Example 91, 8-(1-ethyl-1H-pyrazol-4-yl)-N-(2-methoxy-4-(1-methyl-1H-pyrazol-4-yl)phenyl)pyrido[3,4-d]pyrimidin-2-amine]	10 nM
COc1cc(-c2cnn(C)c2)ccc1Nc1ncc2ccnc(NC(C)C3CC3)c2n1 (stereo not drawn) [Example 75, N8-(1-cyclopropylethyl)-N2-(2-methoxy-4-(1-methyl-1H-pyrazol-4-yl)phenyl)pyrido[3,4-d]pyrimidine-2,8-diamine]	4 nM
CCOc1cc(-c2cnn(C)c2)ccc1Nc1ncc2ccnc(NC3CCOCC3)c2n1 [Example 102, N2-(2-ethoxy-4-(1-methyl-1H-pyrazol-4-yl)phenyl)-N8-(tetrahydro-2H-pyran-4-yl)pyrido[3,4-d]pyrimidine-2,8-diamine]	10 nM
COc1cc(-c2cnn(C)c2)ccc1Nc1ncc2ccnc(N3CCC(OC)CC3)c2n1 [Example 138, N-(2-Methoxy-4-(1-methyl-1H-pyrazol-4-yl)phenyl)-8-(4-methoxypiperidin-1-yl)pyrido[3,4-d]pyrimidin-2-amine]	8 nM
